Patent publication US8080566B1, “Carbazole inhibitors of histamine receptors for the treatment of disease” (Kalypsys, Inc, priority 2008, dated 2011)

What was measured:
[1] = target: human histamine receptor type 4 (Homo sapiens, UniProt Q9H3N8); assay: In vitro histamine receptor cell-based assay, H4R antagonist (aequorin bioluminescence); conditions: CHO-K1 cells expressing human H4 receptor, aequorin and Gα16; histamine at EC80
Source text: (§1) In Vitro Histamine Receptor Cell-Based Assays
(§2) The assays are based on an aequorin dependent bioluminescence signal, generated by receptor signaling through Gq/11 or a similarly acting G protein and a resulting transient calcium flux. Doubly-transfected, stable CHO-K1 cell lines expressing human histamine receptor type 1 or type 4, mitochondrion-targeted aequorin, and (histamine type 4 receptor only) human G protein Gα16 are obtained from Perkin-Elmer (Histamine H1 cell line, catalog ES-390-A; Histamine H4 cell line, catalog ES-393-A). Cells are maintained on conventional culture plasticware in F12 (Ham's) growth medium containing 10% (vol./vol.) fetal bovine serum, penicillin (100 IU/ml), streptomycin (0.1 mg/ml), zeocin (0.25 mg/ml) and geneticin (0.40 mg/ml), as per the manufacturer's instructions (all components from Invitrogen, Inc.). One day prior to assay, the growth medium is replaced with the same, excluding zeocin and geneticin.
(§3) To prepare cells for a histamine receptor assay, growth medium is aspirated, and the cells are rinsed with calcium-free, magnesium-free phosphate-buffered saline. The rinse is aspirated and replaced with Versene (Invitrogen, Inc.) and the cells incubated for two to three minutes at 37° C., followed by tapping the plate to fully dislodge cells. Assay medium (DMEM:F12 [50:50], phenol-red free, containing 1 mg/ml protease-free bovine serum albumin) is added to collect the cells, which are then transferred to a conical tube for centrifugation. The cell pellet is re-suspended in assay medium, and the cell density is determined by counting with a hemacytometer. The cells are then centrifuged again and re-suspended in assay medium to a final density of 5×10^6 cells/ml. Coelenterazine-h dye (500 μM in ethanol) is then added to a final concentration of 5 μM, and mixed immediately. The conical tube containing the cells is then wrapped with foil to protect the light sensitive dye. The cells are incubated for four hours further at normal room temperature (approximately 21° C.) with vertical rotation to keep them in suspension.
(§4) Just before assay, the dye-loaded cells are diluted to 0.75×10^6 cells/ml (H1 receptor) or 1.5×10^6 cells/ml (H4 receptor) with additional assay medium. Cells are dispensed to 1536 well microtiter plates at 3 μl/well. To assay receptor antagonist activity, […] of 100× concentration test compounds in dimethyl sulfoxide (DMSO) are dispensed to the wells, one compound per well, by passive pin transfer, and the plates are incubated for 15 minutes at room temperature. Assay plates are then transferred to a Lumilux (Perkin-Elmer) bioluminescence plate reader equipped with an automated 1536 well disposable tip pipette. The pipette then dispenses 3 μl/well of agonist (histamine, at twice the final concentration, where final concentration is a previously determined EC80 for response), with concurrent bioluminescence detection.
(§5) CCD imaging capture on the Lumilux instrument includes a 5 second baseline read prior to agonist addition, generally with a 40 second complete read per plate. A decrease in bioluminescence signal (measured either as area-under-the-curve, or maximum signal amplitude minus minimum signal amplitude) correlates with receptor antagonism. Negative control activity is measured with DMSO lacking any test compound. For receptor antagonist assays, positive control activity is measured with diphenhydramine (2-Diphenylmethoxy-N,N-dimethylethylamine, 10 μM final concentration, H1 receptor) or JNJ7777120 (1-[(5-Chloro-1H-indol-2-yl)carbonyl]-4-methyl-piperazine, 10 μM final concentration, H4 receptor). For receptor agonist assays, positive activity is measured with histamine (10 μM final concentration). Efficacy is measured as a percentage of positive control activity.

[2] = target: human histamine receptor type 1 (Homo sapiens, UniProt P35367); assay: In vitro histamine receptor cell-based assay, H1R antagonist (aequorin bioluminescence); conditions: CHO-K1 cells expressing human H1 receptor and aequorin; histamine at EC80
Source text: as §1, §2, §3, §4, §5

Chain of human histamine receptor type 1 (P35367 whole entry): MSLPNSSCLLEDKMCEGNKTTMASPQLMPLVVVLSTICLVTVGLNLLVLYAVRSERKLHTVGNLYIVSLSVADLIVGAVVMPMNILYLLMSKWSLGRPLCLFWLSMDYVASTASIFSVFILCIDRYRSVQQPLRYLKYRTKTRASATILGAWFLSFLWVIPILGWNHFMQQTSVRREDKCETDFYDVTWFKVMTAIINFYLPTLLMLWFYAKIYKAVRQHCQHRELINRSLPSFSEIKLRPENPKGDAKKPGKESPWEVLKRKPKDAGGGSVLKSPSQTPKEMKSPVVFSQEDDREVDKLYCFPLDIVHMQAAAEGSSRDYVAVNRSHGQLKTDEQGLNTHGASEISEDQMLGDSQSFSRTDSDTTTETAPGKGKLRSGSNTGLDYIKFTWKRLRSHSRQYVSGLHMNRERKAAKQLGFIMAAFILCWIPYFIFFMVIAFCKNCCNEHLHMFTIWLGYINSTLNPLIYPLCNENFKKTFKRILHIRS

Compound | IC50 [1] | IC50 [2]
CN(C)CCCn1c2ccccc2c2cc(CN3CCCC(c4ccn[nH]4)C3)ccc21 (centres unmarked) [Example 26, 3-(3-((3-(1H-pyrazol-5-yl)piperidin-1-yl)methyl)-9H-carbazol-9-yl)-N,N-dimethylpropan-1-amine] | 19.8 µM | 21.1 µM
CCn1c2ccccc2c2cc(CN3CCCC(c4ccn[nH]4)C3)ccc21 (centres unmarked) [Example 1, 3-((3-(1H-pyrazol-5-yl)piperidin-1-yl)methyl)-9-ethyl-9H-carbazole] | 1.07 µM | 0.54 µM
CCn1c2ccccc2c2cc(CN3CCCC(CO)C3)ccc21 (centres unmarked) [Example 12, (1-((9-Ethyl-9H-carbazol-3-yl)methyl)piperidin-3-yl)methanol] | 1.46 µM | 3.16 µM
CCn1c2ccccc2c2cc(CN3CCCC(c4cnc[nH]4)C3)ccc21 (centres unmarked) [Example 21, 3-((3-(1H-Imidazol-5-yl)piperidin-1-yl)methyl)-9-ethyl-9H-carbazolee] | 2.75 µM | 1.35 µM
CCn1c2ccccc2c2cccc(CN3CCN(C)CC3)c21 [Example 33, 9-ethyl-1-((4-methylpiperazin-1-yl)methyl)-9H-carbazole] | 9.64 µM | 19 µM
CCn1c2ccccc2c2cccc(CN3CCCC(c4ccn[nH]4)C3)c21 (centres unmarked) [Example 30, 1-((3-(1H-pyrazol-5-yl)piperidin-1-yl)methyl)-9-ethyl-9H-carbazole] | 37.4 µM | > 100 µM
CCn1c2ccccc2c2cc(CN3CCCC(c4nnn[nH]4)C3)ccc21 (centres unmarked) [Example 14, 3-((3-(1H-tetrazol-5-yl)piperidin-1-yl)methyl)-9-ethyl-9H-carbazole] | 0.33 µM | 0.69 µM
CCn1c2ccccc2c2ccc(CN3CCCC(c4ccn[nH]4)C3)cc21 (centres unmarked) [Example 29, 2-((3-(1H-pyrazol-5-yl)piperidin-1-yl)methyl)-9-ethyl-9H-carbazole] | 32.1 µM | 6.74 µM
CCn1c2ccccc2c2cc(CN3CCNCC3)ccc21 [Example 9, 9-Ethyl-3-(piperazin-1-ylmethyl)-9H-carbazole] | 12.6 µM | 46.4 µM
CCn1c2ccccc2c2c(CN3CCCC(c4ccn[nH]4)C3)cccc21 (centres unmarked) [Example 31, 4-((3-(1H-pyrazol-5-yl)piperidin-1-yl)methyl)-9-ethyl-9H-carbazole] | 18.4 µM | 14.8 µM
CCn1c2ccccc2c2cc(CN3CCOCC3)ccc21 [Example 2, 4-((9-Ethyl-9H-carbazol-3-yl)methyl)morpholine] | 2.23 µM | 11.1 µM
CCn1c2ccccc2c2cc(CN3CC(C)CC(C)C3)ccc21 (centres unmarked) [Example 4, 3-((3,5-Dimethylpiperidin-1-yl)methyl)-9-ethyl-9H-carbazole] | 9.62 µM | 18.2 µM
CCn1c2ccccc2c2cc(CN3CCN(C)CC3)ccc21 [Example 25, 9-ethyl-3-((4-methylpiperazin-1-yl)methyl)-9H-carbazole] | 0.66 µM | 2.58 µM
CCn1c2ccccc2c2cc(CN3CCCC(C(N)=O)C3)ccc21 (centres unmarked) [Example 10, 1-((9-Ethyl-9H-carbazol-3-yl)methyl)piperidine-3-carboxamide] | 0.18 µM | 0.68 µM
CCn1c2ccccc2c2cc(CN3CCCC3)ccc21 [Example 8, 9-Ethyl-3-(pyrrolidin-1-ylmethyl)-9H-carbazole] | 8.5 µM | 7.55 µM
c1ccc2c(c1)[nH]c1ccc(CN3CCCC(c4ccn[nH]4)C3)cc12 (centres unmarked) [Example 15, 3-((3-(1H-pyrazol-5-yl)piperidin-1-yl)methyl)-9H-carbazole] | 52.6 µM | 37.6 µM
CCOC(=O)C1CCCN(Cc2ccc3c(c2)c2ccccc2n3CC)C1 (centres unmarked) [Example 7, Ethyl 1-((9-ethyl-9H-carbazol-3-yl)methyl)piperidine-3-carboxylate] | 3.83 µM | 5.57 µM
CCn1c2ccccc2c2cc(CN3CCCC(c4ncc[nH]4)C3)ccc21 (centres unmarked) [Example 17, 3-((3-(1H-imidazol-2-yl)piperidin-1-yl)methyl)-9-ethyl-9H-carbazole] | 2.28 µM | 0.53 µM

Second part, the compound after the results:

IC50 [1] | IC50 [2] | Compound
8.55 µM | 35.4 µM | CCn1c2ccccc2c2ccc(CN3CCN(C)CC3)cc21 [Example 34, 9-ethyl-2-((4-methylpiperazin-1-yl)methyl)-9H-carbazole]
2.28 µM | 1.72 µM | CCn1c2ccccc2c2cc(CN3CCCC(n4ccnn4)C3)ccc21 (centres unmarked) [Example 18, 3-((3-(1H-1,2,3-triazol-1-yl)piperidin-1-yl)methyl)-9-ethyl-9H-carbazole]
1.1 µM | 3.38 µM | CCn1c2ccccc2c2cc(CN3CCCC(C(=O)N(C)C)C3)ccc21 (centres unmarked) [Example 20, 1-((9-ethyl-9H-carbazol-3-yl)methyl)-N,N-dimethylpiperidine-3-carboxamide]
3.06 µM | 3.12 µM | CCn1c2ccccc2c2cc(CN3CCC(O)CC3)ccc21 [Example 3, 1-((9-Ethyl-9H-carbazol-3-yl)methyl)piperidin-4-ol]
0.99 µM | 0.59 µM | CCn1c2ccccc2c2cc(CN3CCCC(c4nnc[nH]4)C3)ccc21 (centres unmarked) [Example 19, 3-((3-(4H-1,2,4-Triazol-3-yl)piperidin-1-yl)methyl)-9-ethyl-9H-carbazole]
8.09 µM | 5.94 µM | CCn1c2ccccc2c2cc(CN3CCC(C)CC3)ccc21 [Example 5, 9-Ethyl-3-((4-methylpiperidin-1-yl)methyl)-9H-carbazole]
4.34 µM | 0.57 µM | CCn1c2ccccc2c2cc(CN3CCCC(c4cn[nH]c4)C3)ccc21 (centres unmarked) [Example 24, 3-((3-(1H-pyrazol-4-yl)piperidin-1-yl)methyl)-9-ethyl-9H-carbazole]
21.9 µM | > 30 µM | CCn1c2ccccc2c2c(CN3CCN(C)CC3)cccc21 [Example 32, 9-ethyl-4-((4-methylpiperazin-1-yl)methyl)-9H-carbazole]
55.9 µM | > 30 µM | CN(C)CCCn1c2ccccc2c2cc(CN3CCCC(N)C3)ccc21 (centres unmarked) [Example 28, 1-((9-(3-(dimethylamino)propyl)-9H-carbazol-3-yl)methyl)piperidin-3-amine]
> 30 µM | > 30 µM | CN(C)CCCn1c2ccccc2c2cc(CN3CCCC(C(N)=O)C3)ccc21 (centres unmarked) [Example 27, 1-((9-(3-(dimethylamino)propyl)-9H-carbazol-3-yl)methyl)piperidine-3-carboxamide]
5.9 µM | 8.72 µM | CCn1c2c(c3cc(CN4CCCC(c5ccn[nH]5)C4)ccc31)CCCC2 (centres unmarked) [Example 22, 6-((3-(1H-pyrazol-5-yl)piperidin-1-yl)methyl)-9-ethyl-2,3,4,9-tetrahydro-1H-carbazole]
0.96 µM | 0.09 µM | CCn1c2ccccc2c2cc(CN3CCCC(c4cnn[nH]4)C3)ccc21 (centres unmarked) [Example 23, 3-((3-(1H-1,2,3-triazol-5-yl)piperidin-1-yl)methyl)-9-ethyl-9H-carbazole]
0.34 µM | 0.95 µM | CCn1c2ccccc2c2cc(CN3CCCC(C(=O)NC)C3)ccc21 (centres unmarked) [Example 16, 1-((9-ethyl-9H-carbazol-3-yl)methyl)-N-methylpiperidine-3-carboxamide]
6.15 µM | 9.91 µM | CCn1c2ccccc2c2cc(CN3CCCC(C(=O)O)C3)ccc21 (centres unmarked) [Example 11, 1-((9-Ethyl-9H-carbazol-3-yl)methyl)piperidine-3-carboxylic acid]
1.03 µM | 2.56 µM | CCn1c2ccccc2c2cc(CN3CCCC(C#N)C3)ccc21 (centres unmarked) [Example 13, 1-((9-Ethyl-9H-carbazol-3-yl)methyl)piperidine-3-carbonitrile]
4.39 µM | 5.97 µM | CCn1c2ccccc2c2cc(CN3CCCC(C)C3)ccc21 (centres unmarked) [Example 6, 9-Ethyl-3-((3-methylpiperidin-1-yl)methyl)-9H-carbazole]
